Test system: 616215-338-R-J1-PDC spheroids with HUVEC/MSC, viability
Assay: Anticancer human tumor 616215-338-R-J1-PDC patient-derived colon adenocarcinoma cell line growth inhibition [PI3K]
Settings: for IC50: curve of first compound; for viability, T/C: stronger effect = lower value
Description: Combinatorial screen of targeted agents with the PI3K inhibitors inavolisib, alpelisib, duvelisib, and copanlisib in multi-cell type tumor spheroids
A high-throughput screen of multi-cell type tumor spheroids was designed to identify active combinations of targeted small molecules and PI3K pathway inhibitors. Complex spheroids include a stromal component modeled by human endothelial cells (HUVEC) and fibroblasts modeled by human mesenchymal stem cells (MSCs). The concentration ranges selected for each drug and investigational agent were based upon clinically achievable concentrations if the clinical Cmax of the agent was known.
Compounds. The drugs and investigational agents: inavolisib (NSC800729), alpelisib (NSC765974), duvelisib (NSC772469), copanlisib (NSC816437), ipatasertib (NSC767898), afuresertib (NSC778305), talazoparib (NSC767125), sapanisertib (NSC764658), selumetinib (NSC741078), tovorafenib (DAY101, NSC766906), vemurafenib (NSC761431), ravoxertinib (NSC781343), sotorasib (NSC818433), MRTX1133 (NSC 836407), abemaciclib (NSC 768073), palbociclib (NSC758247), venetoclax (NSC 766270), SY5609 (NSC837396), enzalutamide (NSC755605), and darolutamide (NSC825331), were obtained from the National Cancer Institute (NCI) Developmental Therapeutics Program Chemical Repository. The FDA-approved anticancer drug set is available from the NCI Developmental Therapeutics Program. […] The stock solutions were prepared in dimethyl sulfoxide (DMSO, Sigma-Aldrich, St. Louis, MO, cat. D2650) at 800-fold the tested concentration and stored at -70 degrees C prior to their use. All drugs and investigational agents were tested over a range starting from a high concentration at or near the clinical Cmax and decreasing in half-log increments. If the clinical Cmax for an agent had not been determined, the highest concentration tested was 10 microM.
Cell Culture. All cells were maintained in an incubator at 37 degrees C and 5% CO2 with 95% humidity. The PDC lines were cultured according to standard operating procedures established by the NCI PDMR (https://pdmr.cancer.gov/sops/default.htm). All PDCs were thawed and cultured in Matrigel-coated flasks prepared with a working solution of 1X Ham's F-12 nutrient mix, without supplementation (Invitrogen, Waltham, MA, cat. 11765054), 100 U/mL penicillin-streptomycin (Invitrogen, cat. 15140122), and 2.5% Matrigel (Corning Inc., Corning, NY, cat. 354248) for the first three passages. The 354836-022-R-J1-PDC, 475296-252-R-J1-PDC, and 997726-040-R-J2-PDC lines were cultured in 6A media, which includes advanced DMEM/F-12 (Thermo Fisher Scientific, cat. 12634028), 10 mM HEPES (Thermo Fisher Scientific, cat. 15630080), 1X GlutaMAX supplement (Thermo Fisher Scientific, cat. 35050061), 0.1 mg/mL primocin (InvivoGen, San Diego, CA, cat. ant-pm-2), 10% defined fetal bovine serum, heat inactivated (HyClone Laboratories Inc., Logan, UT, cat. SH30070.03HI), 50% L-WRN conditioned media (ATCC, cat. CRL-3276), 1.25 mM N-Acetyl-L-cysteine (Sigma-Aldrich, cat. A9165), 10 mM nicotinamide (Sigma-Aldrich, cat. N0636), 1X B-27 supplement (Thermo Fisher Scientific, cat. 17504044), 1X N-2 supplement (Thermo Fisher Scientific, cat. 17502048), and 10 microM Y-27632 dihydrochloride (Tocris Bioscience, Bristol, United Kingdom, cat. 1254). The 624824-186-R-J2-PDC line was cultured in 6C/Colon 1B media, which includes all 6A media components plus 50 ng/mL human EGF recombinant protein (Thermo Fisher Scientific, cat. PHG0311). […]

[1] = second compound 0.00316 µM, first compound 0.0316 µM
[2] = second compound 0.00316 µM, first compound 0.1 µM
[3] = second compound 0.00316 µM, first compound 0.316 µM
[4] = second compound 0.00316 µM, first compound 1 µM
[5] = second compound 0.00316 µM, first compound 3.16 µM
[6] = second compound 0.00316 µM, first compound 10 µM
[7] = second compound 0.01 µM, first compound 0.0316 µM
[8] = second compound 0.01 µM, first compound 0.1 µM
[9] = second compound 0.01 µM, first compound 0.316 µM
[10] = second compound 0.01 µM, first compound 1 µM
[11] = second compound 0.01 µM, first compound 3.16 µM
[12] = second compound 0.01 µM, first compound 10 µM
[13] = second compound 0.0316 µM, first compound 0.0316 µM
[14] = second compound 0.0316 µM, first compound 0.1 µM
[15] = second compound 0.0316 µM, first compound 0.316 µM
[16] = second compound 0.0316 µM, first compound 1 µM
[17] = second compound 0.0316 µM, first compound 3.16 µM
[18] = second compound 0.0316 µM, first compound 10 µM
[19] = second compound 0.1 µM, first compound 0.0316 µM
[20] = second compound 0.1 µM, first compound 0.1 µM
[21] = second compound 0.1 µM, first compound 0.316 µM
[22] = second compound 0.1 µM, first compound 1 µM
[23] = second compound 0.1 µM, first compound 3.16 µM
[24] = second compound 0.1 µM, first compound 10 µM
[25] = second compound 0.316 µM, first compound 0.0316 µM
[26] = second compound 0.316 µM, first compound 0.1 µM
[27] = second compound 0.316 µM, first compound 0.316 µM
[28] = second compound 0.316 µM, first compound 1 µM
[29] = second compound 0.316 µM, first compound 3.16 µM
[30] = second compound 0.316 µM, first compound 10 µM
[31] = second compound 1 µM, first compound 0.0316 µM
[32] = second compound 1 µM, first compound 0.1 µM
[33] = second compound 1 µM, first compound 0.316 µM
[34] = second compound 1 µM, first compound 1 µM
[35] = second compound 1 µM, first compound 3.16 µM
[36] = second compound 1 µM, first compound 10 µM
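Also: spheroids exposed to agents for seven days before the viability read.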

For `CC(C)NCC(C(=O)N1CCN(c2ncnc3c2C(C)CC3O)CC1)c1ccc(Cl)cc1` (stereo unspecified) + CC(Nc1ccc2c(c1)OCCn1cc(N3C(=O)OCC3C(F)F)nc1-2)C(N)=O, the IC50 (second compound 0.00316 µM) was 6.44 µM, the IC50 (second compound 0.01 µM) was 5.88 µM and the IC50 (second compound 0.0316 µM) was 5.98 µM. For the same compound, the IC50 (second compound 0.1 µM) was 4.99 µM, the IC50 (second compound 0.316 µM) was 5.13 µM and the IC50 (second compound 1 µM) was 3.76 µM. It also gave a viability, T/C [1] of 86.5%, a viability, T/C [2] of 95.8% and a viability, T/C [3] of 95.8%. The viability, T/C [4] was 98.2%, the viability, T/C [5] was 69.9% and the viability, T/C [6] was 37.7%. For the same compound, the viability, T/C [7] was 88.5%, the viability, T/C [8] was 102% and the viability, T/C [9] was 90.4%. For the same compound, the viability, T/C [10] was 110%, the viability, T/C [11] was 70% and the viability, T/C [12] was 32.9%. It also gave a viability, T/C [13] of 97.7%, a viability, T/C [14] of 104% and a viability, T/C [15] of 98%. The viability, T/C [16] was 98.1%, the viability, T/C [17] was 65.8% and the viability, T/C [18] was 37.2%. The viability, T/C [19] was 95%, the viability, T/C [20] was 94.6% and the viability, T/C [21] was 95%. For the same compound, the viability, T/C [22] was 93.6%, the viability, T/C [23] was 65.7% and the viability, T/C [24] was 26.1%. For the same compound, the viability, T/C [25] was 110%, the viability, T/C [26] was 99.9% and the viability, T/C [27] was 95.5%. The viability, T/C [28] was 103%, the viability, T/C [29] was 65.9% and the viability, T/C [30] was 28%. The viability, T/C [31] was 106%, the viability, T/C [32] was 95.5% and the viability, T/C [33] was 105%. The viability, T/C [34] was 88.9%, the viability, T/C [35] was 54% and the viability, T/C [36] was 29.3%.

`CCN1CCN(Cc2ccc(Nc3ncc(F)c(-c4cc(F)c5nc(C)n(C(C)C)c5c4)n3)nc2)CC1` + CC(Nc1ccc2c(c1)OCCn1cc(N3C(=O)OCC3C(F)F)nc1-2)C(N)=O gave an IC50 (second compound 0.00316 µM) greater than 1 µM, an IC50 (second compound 0.01 µM) greater than 1 µM and an IC50 (second compound 0.0316 µM) greater than 1 µM. The IC50 (second compound 0.1 µM) was greater than 1 µM, the IC50 (second compound 0.316 µM) was greater than 1 µM and the IC50 (second compound 1 µM) was greater than 1 µM. The viability, T/C (second compound 0.00316 µM, first compound 0.00316 µM) was 93.8%, the viability, T/C (second compound 0.00316 µM, first compound 0.01 µM) was 100% and the viability, T/C [1] was 96.3%. For the same compound, the viability, T/C [2] was 98.7%, the viability, T/C [3] was 131% and the viability, T/C [4] was 111%. The viability, T/C (second compound 0.01 µM, first compound 0.00316 µM) was 94.9%, the viability, T/C (second compound 0.01 µM, first compound 0.01 µM) was 102% and the viability, T/C [7] was 98.5%. For the same compound, the viability, T/C [8] was 102%, the viability, T/C [9] was 113% and the viability, T/C [10] was 102%. For the same compound, the viability, T/C (second compound 0.0316 µM, first compound 0.00316 µM) was 103%, the viability, T/C (second compound 0.0316 µM, first compound 0.01 µM) was 111% and the viability, T/C [13] was 99.8%. For the same compound, the viability, T/C [14] was 107%, the viability, T/C [15] was 112% and the viability, T/C [16] was 96.6%. It also gave a viability, T/C (second compound 0.1 µM, first compound 0.00316 µM) of 104%, a viability, T/C (second compound 0.1 µM, first compound 0.01 µM) of 94.3% and a viability, T/C [19] of 99.3%. It also gave a viability, T/C [20] of 108%, a viability, T/C [21] of 107% and a viability, T/C [22] of 74.5%. For the same compound, the viability, T/C (second compound 0.316 µM, first compound 0.00316 µM) was 102%, the viability, T/C (second compound 0.316 µM, first compound 0.01 µM) was 110% and the viability, T/C [25] was 105%. The viability, T/C [26] was 97.8%, the viability, T/C [27] was 96.1% and the viability, T/C [28] was 57.6%. The viability, T/C (second compound 1 µM, first compound 0.00316 µM) was 113%, the viability, T/C (second compound 1 µM, first compound 0.01 µM) was 90.9% and the viability, T/C [31] was 84.6%. For the same compound, the viability, T/C [32] was 85.5%, the viability, T/C [33] was 73.7% and the viability, T/C [34] was 49.6%.

With `Cn1ncc(Cl)c1-c1cc(C(=O)NC(CN)Cc2cccc(F)c2)sc1Cl` (stereo unspecified) + CC(Nc1ccc2c(c1)OCCn1cc(N3C(=O)OCC3C(F)F)nc1-2)C(N)=O the IC50 (second compound 0.00316 µM) was 6.62 µM, the IC50 (second compound 0.01 µM) was 5.81 µM and the IC50 (second compound 0.0316 µM) was 5.89 µM. It also gave an IC50 (second compound 0.1 µM) of 5.78 µM, an IC50 (second compound 0.316 µM) of 6.34 µM and an IC50 (second compound 1 µM) of 5.53 µM. For the same compound, the viability, T/C [1] was 101%, the viability, T/C [2] was 82.3% and the viability, T/C [3] was 96.3%. The viability, T/C [4] was 92.7%, the viability, T/C [5] was 78.6% and the viability, T/C [6] was 33.6%. For the same compound, the viability, T/C [7] was 87.6%, the viability, T/C [8] was 96% and the viability, T/C [9] was 115%. For the same compound, the viability, T/C [10] was 104%, the viability, T/C [11] was 68.3% and the viability, T/C [12] was 33.6%. It also gave a viability, T/C [13] of 104%, a viability, T/C [14] of 92.2% and a viability, T/C [15] of 91.9%. For the same compound, the viability, T/C [16] was 88.8%, the viability, T/C [17] was 73.7% and the viability, T/C [18] was 30.3%. For the same compound, the viability, T/C [19] was 90.2%, the viability, T/C [20] was 108% and the viability, T/C [21] was 95.1%. The viability, T/C [22] was 83.7%, the viability, T/C [23] was 73.4% and the viability, T/C [24] was 30%. The viability, T/C [25] was 90.1%, the viability, T/C [26] was 110% and the viability, T/C [27] was 97%. The viability, T/C [28] was 88.3%, the viability, T/C [29] was 71.6% and the viability, T/C [30] was 36.1%. The viability, T/C [31] was 100%, the viability, T/C [32] was 101% and the viability, T/C [33] was 93.9%. It also gave a viability, T/C [34] of 81.1%, a viability, T/C [35] of 74.6% and a viability, T/C [36] of 27.9%.

Source: PubChem BioAssay AID1963978 (Molecular Pharmacology Branch, DTP, NCI, 2024)
